Patent publication US8202871B2, “Indol-2-one derivatives disubstituted in the 3-position, preparation thereof and therapeutic use thereof” (Sanofi-Aventis, priority 2007, dated 2012)

Assays:
ghrelin receptor = target: T1, ghrelin receptor (Rattus norvegicus, UniProt O08725); assay: Antagonism of ghrelin on electric-field-stimulated contractions of isolated rat gastric fundus strips (headed 'In Vivo Test'); details: ghrelin 0.1 nM-1 μM concentration-response curves with and without antagonist, contact time 30 minutes, read-out: antagonist activity towards the ghrelin receptor, IC50
T1 construct: Strips of approximately 1 cm (5 mm wide) of gastric fundus were cut out along the longitudinal axis; from tissue; host or cells: rat gastric fundus strips
T1 sequence (O08725 whole entry): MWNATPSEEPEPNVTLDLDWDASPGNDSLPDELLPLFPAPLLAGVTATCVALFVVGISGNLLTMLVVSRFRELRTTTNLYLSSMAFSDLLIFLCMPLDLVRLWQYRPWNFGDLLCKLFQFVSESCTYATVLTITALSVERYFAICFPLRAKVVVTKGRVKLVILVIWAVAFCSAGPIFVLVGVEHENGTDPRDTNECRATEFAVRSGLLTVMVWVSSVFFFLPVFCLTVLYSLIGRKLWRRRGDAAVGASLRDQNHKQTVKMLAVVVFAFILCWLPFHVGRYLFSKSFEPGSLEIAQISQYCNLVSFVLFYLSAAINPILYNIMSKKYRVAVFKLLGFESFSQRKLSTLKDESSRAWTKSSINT
Description: The compounds according to the invention underwent in vivo studies.
Male Crl CD BR rats (Charles River, Italy) weighing 150-175 g were housed in a chamber at regulated temperature (22±1° C.) and humidity (55±10%) and with a 12-hour lightness-darkness cycle, for at least 7 days before their use. Feed and water were available ad libitum. The feed was removed 18 hours before sacrificing the animals. The rats were sacrificed by cervical dislocation, and the stomach was removed surgically, opened along the shorter curvature and placed in a Krebs solution (of composition (mM): 118.4 NaCl; 4.7 KCl; 2.5 CaCl2; 3.7 NaH2PO4; 1.2 MgSO4; 25 NaHCO3; 5.6 glucose). The animals were cared for and sacrificed according to the Sanofi-Aventis international code of ethics and the international principles governing the care and treatment of laboratory animals (EEC Directive 86/609, DJL358, 1, 12 Dec. 1987). […] The contractions were recorded by computer with a data recording and analysis system (Power Lab, Chart 5) connected to isotonic transducers (Ugo Basile, Varese, Italy) via preamplifiers (Octal Bridge Amp). […] The pKb values for the antagonists were calculated according to the Cheng-Prusoff equation (Kenakin et al., Competitive Antagonism, Pharmacologic Analysis of Drug-Receptor Interaction, 3rd edition, 331-373, Philadelphia, New York; Raven: Lippincott, 1997).

| melting point [°C] | IC50 (ghrelin receptor) [nM] | SMILES |
| --- | --- | --- |
| 207.1 to 207.6 | 50 | CN1CCN(CC(=O)NC2(c3ccc(Cl)cc3)C(=O)Nc3cc(Cl)c(Cl)cc32)CC1 (single isomer, unassigned; (+)) [Compound 1, (+)-N-[5,6-Dichloro-3-(4-chlorophenyl)-2-oxo-2,3-dihydro-1H-indol-3-yl]-2-(4-methylpiperazin-1-yl)acetamide] |
| 158 to 162 | 1 | CCN1CCC(CC(=O)NC2(c3ccc(C(F)(F)F)cc3)C(=O)Nc3cc(Cl)cc(Cl)c32)CC1 (single isomer, unassigned; (+)) [Compound 2, (+)-N-[4,6-Dichloro-3-(4-trifluoromethylphenyl)-2-oxo-2,3-dihydro-1H-indol-3-yl]-2-(1-ethylpiperid-4-yl)acetamide] |
